By viability is commonly meant the share of living cells, or the viability signal relative to a control. A lower viability goes with more harm to the cells.

One data set deals with HEK293 cells. Description: in vitro. The data set is classed as cell-based. Conditions: human. The method, then: (§1) On Day 3, fluorescence was read with Nano-BRET substrates. Remove plates from incubator to allow to reach to RT (30 min). Also equilibrate CTG reagent to Rm Temp. Dilute Nano-BRET substrate 1:100 in Assay media. Add 25 uL of diluted substrate to each well and shake for 30 seconds. Read on ClarioSTAR or GloMAX right away (within 10 min). Donor emission @ 460 nm. Acceptor emission @ 618 nm. Use the same plate to measure cell viability (Cell Titer-Glo-2.0 (CTG) Viability test). After reading BRET signal, add CTG reagent to each well at 1:2 ratio and shake on orbital shaker for 2 min. Incubate at Rm Temp for 10-30 min. Read luminescence on ClarioSTAR or GloMAX. Analysis was performed using Prism. Non-linear regression. Log (inhibitor) vs response—variable slope (four parameters). For CTG data linear values (not logarithmic).

Another data set is described as follows: in vitro. The following applies: human, HEK293 cells, CTG (CellTiter Glo) Relative to Media. The data set is classed as cell-based. The method, then: as §1
(In general: ATP-based viability assays read luminescence as a measure of living cells.)

For `CC(=O)N1CCC[C@]12CC=CCCCC1(CCCC=CCCCOC(=O)N3CC[C@@](C(=O)N[C@@H](Cc4ccsc4)C(=O)N[C@@H](Cc4csc5ccccc45)C(=O)N[C@@H](CCC(N)=O)C(=O)N[C@H](C)C(N)=O)(C3)NC(=O)[C@H](CC(N)=O)NC(=O)[C@H](Cc3ccccc3)NC(=O)[C@H](C)NC(=O)[C@H](C)NC(=O)[C@H](CC(=O)O)NC(=O)[C@H](CC(=O)O)NC1=O)NC(=O)[C@H](CC(C)(C)C)NC(=O)[C@H](CC(=O)O)NC2=O` (stereo partly drawn) [I-822, Ac-PL3-Asp-Npg-B5-Asp-Asp-Ala-Ala-Phe-Asn-PyrS2-3Thi-BztA-Gln-dAla-NH2], the “CTG (CellTiter Glo) Relative to Media” value in the data set with HEK293 cells (1.25 µM) is recorded as 98. Moreover, in the data set on HEK293 cells (2.5 µM), the “CTG (CellTiter Glo) Relative to Media” value amounted to 98. Moreover, the “CTG (CellTiter Glo) Relative to Media” value in the data set with HEK293 cells (5 µM) came out at 95. The “CTG (CellTiter Glo) Relative to Media” value in the data set with HEK293 cells (10 µM) is given as 92. In “in vitro”, this compound showed a viability at 0.625 µM of 100%, a viability at 1.25 µM of 94%, a viability at 2.5 µM of 99% and a viability at 5 µM of 94%. In the data set “in vitro”, this compound displayed a viability at 10 µM of 90% and a viability at 20 µM of 82%.

These data come from US20240116985A1, “STAPLED PEPTIDES AND METHODS THEREOF” (priority 2020, published 2024).
